Test results reported in patent US5273991A, “Imidazole-containing compositions and methods of use thereof analogs of distamycin” (Research Corporation Technologies, Inc., priority 1992, dated 1993).

Columns and labels:
calf thymus DNA = assay: UV-dialysis study (covalent retention on DNA); format: binding; conditions: 24 h incubation at room temperature; 20-26 hours dialysis; pH 7.1
Source text: The compounds of the present invention are useful as anticancer agents. Although the biological mechanism which results in anticancer activity is not fully understood, the compounds of the subject invention are capable of binding to the minor groove of double-stranded DNA and, unlike distamycin and netropsin, can tolerate GC-containing DNA. Accordingly, the DNA alkylating moiety of the compounds of the present invention can be directed to the minor groove of GC-containing regions of double-stranded DNA. One of ordinary skill in the art can determine the DNA alkylating ability of the compounds of the present invention by art-recognized methods. The formation of an irreversible adduct of DNA and a compound of the present invention is defined herein as a measure of the DNA alkylating ability of the subject compounds. The formation of an irreversible adduct can be determined by art-recognized methods. For example, a solution containing DNA and a compound of the present invention can be exhaustively dialyzed under conditions which allow unbound drug to pass out of the dialysis bag. The percentage of the compound which has been retained in the dialysis bag is considered to be covalently bound to the DNA, and is determined by comparing the UV absorption spectrum of the compound/DNA solution before and after exhaustive dialysis.
0.5 mL of 2A260 calf thymus DNA was diluted to 2 mL with 10 mM sodium phosphate and 0.25 mM EDTA buffer, pH 7.1. Four aliquots (3 μL each) of a 1 mM stock drug solution in distilled water were added to the DNA solution and a UV absorption spectrum (300-320) was recorded after each addition. The drug/DNA solution was incubated for 24 h at room temperature and another UV spectrum was recorded. The drug/DNA solution was then transferred into a dialysis bag and the dialysis bag was suspended in 30 mL of 10 mM sodium phosphate and 0.25 mM EDTA buffer, pH, 7.1, at room temperature. After 20-26 hours, the […] spectrum of 2 mL of the buffer outside the dialysis bag was recorded. The absorbance of the drug peak was converted to concentration by the Beer-Lambert equation, and the data was presented as percent initial concentration. Under these conditions, substantial amounts of Compounds 6 (55±5%), 7 (45±5%), 8 (85±5%) and 10 (100±5%) are retained in the dialysis bag, while only 29±5% of a formamido analog^1 is retained.

poly(dA.dT) = assay: circular dichroism (CD) titration, poly(dA.dT); format: binding; conditions: for CD titration result in words: r' up to ~1.0
Procedure: (§1) The DNA binding properties of the present compounds were assessed by circular dichroism (CD) titration experiments. Methods for CD titration can be found, for example, in Zimmer et al. (1986) Prog. Biophys. Molec. Biol 47, 31. The conformation of DNA can be readily determined by CD experiments, and for B-DNA, characteristic positive and negative Cotton effects are observed at 260 and 245 nm, respectively.
(§2) The interaction of Compounds 6-10 to a number of DNAs [calf thymus, poly(dA dT) and poly(dG dC)] were analyzed by CD titration studies. All the CD titration experiments were performed using identical procedures, concentrations of DNA, and increments of drug:DNA ratios (or `r`, i.e. moles of drug to moles of DNA base pairs). Therefore, the differences observed in the CD spectra for the titration of each of the compounds to the polydeoxynucleotides may be directly compared to reflect their DNA binding properties.
All experiments were performed with a continuous flow of nitrogen purging the polarimeter. A 1 mm path length jacketed cell was used and all experiments were done at room temperature. Initially, DNA [0.02 μ moles (base pairs), 130 μL] was placed in the cell and the spectrum of the DNA alone was collected. Aliquots of drug were added and the spectra collected. […] The scan parameters were set and standard for all experiments. The spectra were collected from 400 nm to 200 nm. The sensitivity was set at 1 mdeg and the scan speed was set at 20 nm per minute. Three scans were accumulated and automatically averaged by the computer. The λmax and ellipticity (mdeg) for each spectrum were collected from the raw scans and the final plots were smoothed by the noise reduction program on the computer. […] The induced CD band is presumably due to the uv absorption π to π^* transition of the drug in the drug:DNA complex. […] Therefore interaction of these drugs with DNA causes only minor conformational changes in the double helix.

poly(dG.dC) = assay: circular dichroism (CD) titration, poly(dG.dC); format: binding
Procedure: as §1, §2
All experiments were performed with a continuous flow of nitrogen purging the polarimeter. A 1 mm path length jacketed cell was used and all experiments were done at room temperature. Initially, DNA [0.02 μ moles (base pairs), 130 μL] was placed in the cell and the spectrum of the DNA alone was collected. Aliquots of drug were added and the spectra collected. The drug solutions were 1 mM and amounts of the drug added correspond to a drug to base pair ratio of 0.05, 0.10, 0.15, 0.20, 0.25, 0.30, 0.40, 0.50, 0.60, 0.80, 1.00. The scan parameters were set and standard for all experiments. The spectra were collected from 400 nm to 200 nm. The sensitivity was set at 1 mdeg and the scan speed was set at 20 nm per minute. Three scans were accumulated and automatically averaged by the computer. The λmax and ellipticity (mdeg) for each spectrum were collected from the raw scans and the final plots were smoothed by the noise reduction program on the computer. […] The induced CD band is presumably due to the uv absorption π to π^* transition of the drug in the drug:DNA complex. […] Therefore interaction of these drugs with DNA causes only minor conformational changes in the double helix.

NCI-H522 = assay: NCI cytotoxicity screen (SRB); format: cell-based, human
Procedure: Compounds 6, 7, 9 and 10 were tested for cytotoxic properties by the National Cancer Institute, Bethesda, Md. The anticancer drug screen utilized a panel of 60 human tumor cell lines organized into subpanels representing leukemia, melanoma, and cancers of the lung, colon, kidney, ovary and central nervous system and is described by Monks et al. (1991) Journal of the National Cancer Institute 83, 757, which is incorporated herein by reference.
Cell lines were inoculated onto microtiter plates and preincubated for 24-28 hours. 100 μL aliquots of each compound were added to the appropriate microtiter plate wells in each of five 10-fold dilutions starting from a maximum concentration of 10^-4 M in water or DMSO. Cultures were then incubated for an additional 48 hours. Cells were then fixed in situ, followed by staining with sulforhodamine B (SRB), which binds to basic amino acids of cellular macromolecules. The solubilized stain was measured spectrophotometrically to determine relative cell growth or viability in treated and untreated cells. The monoimidazole analogs of Compounds 6, 7, 9 and 10 and the formamido analog corresponding to Compounds 7 and 10 are devoid of activity against the panel of cancer cell lines in Table III.

HL-60 (TB) = assay: NCI cytotoxicity screen (SRB); format: cell-based, human
[1] = 48 h, Non-Small Cell Lung Cancer NCI-H522

SMILES	retained in the dialysis bag (percent initial concentration) (calf thymus DNA)	CD titration result in words (poly(dA.dT))	negative Cotton effect, ellipticity (poly(dG.dC); 333 nm, r'=0.2)	isobestic point (poly(dG.dC); poly(dG.dC))	IC50 (NCI-H522; [1])	IC50 (NCI-H522; NCI-H522, subsequent test date)	IC50 (HL-60 (TB); 48 h, Leukemia HL-60 (TB))	negative Cotton effect band, ellipticity (poly(dA.dT); 315 nm, equimolar titration)	negative Cotton effect band, ellipticity (poly(dG.dC); 315 nm, equimolar titration)	induced negative CD band, ellipticity (poly(dA.dT); 310 nm, r'=0.2)	induced positive CD band, ellipticity (poly(dA.dT); 350 nm, r'=0.2)	isobestic point (poly(dA.dT); poly(dA.dT))	induced negative CD band, ellipticity (poly(dG.dC); 330 nm, r'=0.2)	IC50 (HL-60 (TB); HL-60 (TB), subsequent test date)	new positive Cotton effect shoulder, wavelength (poly(dG.dC); poly(dG.dC))
CN(C)CCNC(=O)c1nc(NC(=O)c2nc(NC(=O)c3nc(NC(=O)c4ccc(N(CCCl)CCCl)cc4)cn3C)cn2C)cn1C [Compound 7, N-(N',N'-dimethylaminoethyl)-1-methyl-4-{1-methyl-4-[4-(4,4-bis-(2-chloroethyl)aminobenzamido)-1-methylimidazole-2-carboxamido]imidazole-2-carboxamido}imidazole-2-carboxamide]	45±5%	minor changes in the CD spectrum	1 mdeg	283 nm	4.41 µM	0.42 µM	0.72 µM	–	–	–	–	–	–	–	–
CN(C)CCNC(=O)c1nc(NC(=O)c2nc(NC(=O)c3nc(NC(=O)CCCc4ccc(N(CCCl)CCCl)cc4)cn3C)cn2C)cn1C [Compound 10, N-(N',N'-dimethylaminoethyl)-1-methyl-4-{1-methyl-4-[4-(4,4-bis(2-chloroethyl)aminophenyl-1-butanamido)-1-methylimidazole-2-carboxamido]imidazole-2-carboxamido}imidazole-2-carboxamide]	100±5%	–	–	–	6.77 µM	–	7.89 µM	-0.8 mdeg	-1.0 mdeg	–	–	–	–	–	–
CN(C)CCNC(=O)c1nc(NC(=O)c2nc(NC(=O)CCCc3ccc(N(CCCl)CCCl)cc3)cn2C)cn1C [Compound 9, N-(N',N'-dimethylaminoethyl)-1-methyl-4-{4-[4,4-bis(2-chloroethyl)aminophenyl-1-butanamido]-1-methylimidazole-2-carboxamido}imidazole-2-carboxamide]	–	–	–	–	86.6 µM	–	43.8 µM	–	–	–	–	–	–	–	–
CN(C)CCNC(=O)c1nc(NC(=O)c2nc(NC(=O)c3ccc(N(CCCl)CCCl)cc3)cn2C)cn1C [Compound 6, N-(N',N'-dimethylaminoethyl)-1-methyl-4-{4-[4,4-bis(2-chloroethyl)aminobenzamido]-1-methylimidazole-2-carboxamido}imidazole-2-carboxamide]	55±5%	–	–	297 nm	6.98 µM	5.74 µM	7.84 µM	–	–	0.4 mdeg	1.8 mdeg	315 nm	0.7 mdeg	7.93 µM	–
CN(C)CCNC(=O)c1nc(NC(=O)c2nc(NC(=O)c3nc(NCc4ccc(N(CCCl)CCCl)cc4)cn3C)cn2C)cn1C [Compound 8, N-(N',N'-dimethylaminoethyl)-1-methyl-4-{1-methyl-4-[4-(4,4-bis-(2-chloroethyl)aminobenzylamino)-1-methylimidazole-2-carboxamido]imidazole-2-carboxamido}imidazole-2-carboxamide]	85±5%	did not produce any changes in the CD spectrum	–	–	–	–	–	–	–	–	–	–	–	–	288 nm
